Results taken from ChEMBL document CHEMBL1129086, “Design of a novel cognitive enhancer (8S, 10aS)-8-carbamoyl-1,2,3,6,7,8,9,10a-octahydro-5H,10H-pyrrolo[1,2-a][1,4]diazocin-5,10-dione” (1996).
Active and inactive are the calls of the source. No cut-off for these calls is given here. Where a SMILES comes first, the peptide text is derived from it. Bridges are numbered along the chain shown (N, C = ends). [ ]: non-standard residue; d: D form. pGlu = O=C1CC[C@@H](C(=O)O)N1

Key:
Mus musculus [1] = species on record: Mus musculus; experiment: Compound was tested for motor impairment in mice by neuropharmacological test; No effect; type: functional, organism-based
Mus musculus [2] = species on record: Mus musculus; experiment: Compound was tested for myorelaxant action in mice by neuropharmacological test; No effect; type: functional, organism-based
Mus musculus [3] = species on record: Mus musculus; experiment: Compound was tested for psychomotor activation on CNS in mice by neuropharmacological test; No effect; type: functional, organism-based; settings: Central nervous system
Mus musculus [4] = species on record: Mus musculus; experiment: Compound was tested for sedative action in mice by neuropharmacological test; No effect; type: functional, organism-based
Rattus norvegicus [5] = experiment: Antiamnesic potency was discovered in the passive avoidance test in rats at a dose 0.1 mg/kg (p<0.05); Amnesia reversed; type: functional, organism-based; design: dose 0.1 mg/kg
Rattus norvegicus [6] = experiment: Antiamnesic potency was discovered in the passive avoidance test in rats at a dose 1.0 mg/kg (p<0.05); Amnesia reversed; type: functional, organism-based; design: dose 1 mg/kg
Rattus norvegicus [7] = experiment: Compound was tested for amnesia response against scopolamine induced rats by passive avoidance test at a dose 1 mg/kg; type: functional

SMILES | Activity (Mus musculus [1]) | Activity (Mus musculus [2]) | Activity (Mus musculus [3]) | Activity (Mus musculus [4]) | Activity (Rattus norvegicus [5]) | Activity (Rattus norvegicus [6]) | Response (Rattus norvegicus [7]) [%]
CC(C)(C)OC(=O)N[C@@H](CCC(=O)O)C(=O)O | inactive | inactive | inactive | inactive | – | – | –
NC(=O)CC[C@H](NC(=O)[C@@H]1CCC(=O)N1)C(=O)N1CCC[C@H]1C(N)=O ([pGlu]-Gln-Pro-NH2) | inactive | inactive | inactive | inactive | – | – | –
CC(C)(C)OC(=O)N[C@@H](CCC(=O)O)C(=O)OCC(=O)NC(c1ccccc1)c1ccccc1 | inactive | inactive | inactive | inactive | – | – | –
NC(=O)[C@@H]1CCC(=O)N2CCC[C@H]2C(=O)N1 (Pro-Glu-NH2; lactam N-2) | inactive | inactive | inactive | inactive | Amnesia reversed | Amnesia reversed | 83
O=C(COC(=O)[C@@H]1CCC(=O)N2CCC[C@H]2C(=O)N1)NC(c1ccccc1)c1ccccc1 | inactive | inactive | inactive | inactive | – | – | –
CC(C)(C)OC(=O)N[C@@H](CCC(=O)N1CCC[C@H]1C(=O)O)C(=O)OCC(=O)NC(c1ccccc1)c1ccccc1 | inactive | inactive | inactive | inactive | – | – | –
NC(=O)[C@@H]1CCCN1C(=O)[C@H](Cc1c[nH]cn1)NC(=O)[C@@H]1CCC(=O)N1 | inactive | inactive | inactive | inactive | – | – | –
